Source: ChEMBL document CHEMBL4507301 (2021)

Legend:
[1] = target: Serine/threonine-protein kinase pim-2 (Homo sapiens) (UniProt Q9P1W9); details: Compound concentration 1000.0 nM
[2] = target: Muscarinic acetylcholine receptor M2 (Homo sapiens) (UniProt P08172); details: Compound concentration 10.0 uM
[3] = target: Non-receptor tyrosine-protein kinase TNK1 (Homo sapiens) (UniProt Q13470); details: Compound concentration 1000.0 nM
[4] = target: Serine/threonine-protein kinase MAK (Homo sapiens) (UniProt P20794); details: Compound concentration 1000.0 nM
[5] = target: Myosin light chain kinase (Homo sapiens) (UniProt Q32MK0); details: Compound concentration 1000.0 nM
Sequence of Myosin light chain kinase (Homo sapiens) (Q32MK0 whole entry): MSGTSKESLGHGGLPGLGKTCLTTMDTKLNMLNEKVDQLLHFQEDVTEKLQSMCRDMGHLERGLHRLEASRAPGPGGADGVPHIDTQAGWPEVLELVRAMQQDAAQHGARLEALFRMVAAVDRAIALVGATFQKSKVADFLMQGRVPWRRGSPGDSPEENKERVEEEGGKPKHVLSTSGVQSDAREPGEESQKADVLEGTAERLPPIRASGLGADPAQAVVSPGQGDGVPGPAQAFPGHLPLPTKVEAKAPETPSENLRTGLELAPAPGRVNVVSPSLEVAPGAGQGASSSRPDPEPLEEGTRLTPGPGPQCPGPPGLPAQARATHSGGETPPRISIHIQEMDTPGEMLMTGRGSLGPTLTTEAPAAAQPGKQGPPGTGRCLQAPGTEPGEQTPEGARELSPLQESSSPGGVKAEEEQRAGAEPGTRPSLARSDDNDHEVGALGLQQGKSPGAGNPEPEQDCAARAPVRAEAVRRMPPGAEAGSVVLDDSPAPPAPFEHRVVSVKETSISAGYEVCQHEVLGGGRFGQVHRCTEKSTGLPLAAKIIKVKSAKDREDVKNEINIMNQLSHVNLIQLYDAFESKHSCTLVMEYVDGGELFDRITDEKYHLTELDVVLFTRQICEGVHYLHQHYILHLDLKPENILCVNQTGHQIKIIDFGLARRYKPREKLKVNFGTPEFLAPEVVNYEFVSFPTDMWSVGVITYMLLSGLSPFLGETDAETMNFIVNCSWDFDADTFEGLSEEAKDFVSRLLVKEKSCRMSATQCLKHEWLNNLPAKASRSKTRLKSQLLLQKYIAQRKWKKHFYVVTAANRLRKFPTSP

[6] = target: cAMP-dependent protein kinase catalytic subunit alpha (Homo sapiens) (UniProt P17612); details: Compound concentration 1000.0 nM
[7] = target: Tyrosine-protein kinase receptor UFO (Homo sapiens) (UniProt P30530); details: Compound concentration 1000.0 nM
[8] = target: Serine/threonine-protein kinase WNK4 (Homo sapiens) (UniProt Q96J92); details: Compound concentration 1000.0 nM
[9] = tested on: Hepatocyte growth factor receptor (Homo sapiens), P08581 [M1250T]; details: Compound concentration 1000.0 nM
[10] = target: Beta-2 adrenergic receptor (Homo sapiens) (UniProt P07550); details: Compound concentration 10.0 uM
[11] = target: D(1A) dopamine receptor (Homo sapiens) (UniProt P21728); details: Compound concentration 10.0 uM
[12] = target: Dual specificity protein kinase CLK4 (Homo sapiens) (UniProt Q9HAZ1); details: Compound concentration 1000.0 nM
[13] = target: Angiopoietin-1 receptor (Homo sapiens) (UniProt Q02763); details: Compound concentration 1000.0 nM
[14] = target: 1-phosphatidylinositol 3-phosphate 5-kinase (Homo sapiens) (UniProt Q9Y2I7); details: Compound concentration 1000.0 nM
[15] = target: Serine/threonine-protein kinase WNK1 (Homo sapiens) (UniProt Q9H4A3); details: Compound concentration 1000.0 nM
[16] = target: Mitogen-activated protein kinase 3 (Homo sapiens) (UniProt P27361); details: Compound concentration 1000.0 nM
Sequence of Mitogen-activated protein kinase 3 (Homo sapiens) (P27361 whole entry): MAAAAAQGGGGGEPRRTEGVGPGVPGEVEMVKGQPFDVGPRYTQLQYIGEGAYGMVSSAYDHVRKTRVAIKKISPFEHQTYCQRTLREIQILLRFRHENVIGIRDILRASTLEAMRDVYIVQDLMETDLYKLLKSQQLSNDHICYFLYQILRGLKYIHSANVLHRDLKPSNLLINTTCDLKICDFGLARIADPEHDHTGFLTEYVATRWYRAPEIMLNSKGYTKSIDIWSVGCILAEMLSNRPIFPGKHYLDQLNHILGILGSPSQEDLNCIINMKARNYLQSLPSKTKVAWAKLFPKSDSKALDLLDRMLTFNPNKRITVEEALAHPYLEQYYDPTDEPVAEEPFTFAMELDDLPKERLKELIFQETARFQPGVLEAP

[17] = target: Serine/threonine-protein kinase D2 (Homo sapiens) (UniProt Q9BZL6); details: Compound concentration 1000.0 nM
Sequence of Serine/threonine-protein kinase D2 (Homo sapiens) (Q9BZL6 whole entry): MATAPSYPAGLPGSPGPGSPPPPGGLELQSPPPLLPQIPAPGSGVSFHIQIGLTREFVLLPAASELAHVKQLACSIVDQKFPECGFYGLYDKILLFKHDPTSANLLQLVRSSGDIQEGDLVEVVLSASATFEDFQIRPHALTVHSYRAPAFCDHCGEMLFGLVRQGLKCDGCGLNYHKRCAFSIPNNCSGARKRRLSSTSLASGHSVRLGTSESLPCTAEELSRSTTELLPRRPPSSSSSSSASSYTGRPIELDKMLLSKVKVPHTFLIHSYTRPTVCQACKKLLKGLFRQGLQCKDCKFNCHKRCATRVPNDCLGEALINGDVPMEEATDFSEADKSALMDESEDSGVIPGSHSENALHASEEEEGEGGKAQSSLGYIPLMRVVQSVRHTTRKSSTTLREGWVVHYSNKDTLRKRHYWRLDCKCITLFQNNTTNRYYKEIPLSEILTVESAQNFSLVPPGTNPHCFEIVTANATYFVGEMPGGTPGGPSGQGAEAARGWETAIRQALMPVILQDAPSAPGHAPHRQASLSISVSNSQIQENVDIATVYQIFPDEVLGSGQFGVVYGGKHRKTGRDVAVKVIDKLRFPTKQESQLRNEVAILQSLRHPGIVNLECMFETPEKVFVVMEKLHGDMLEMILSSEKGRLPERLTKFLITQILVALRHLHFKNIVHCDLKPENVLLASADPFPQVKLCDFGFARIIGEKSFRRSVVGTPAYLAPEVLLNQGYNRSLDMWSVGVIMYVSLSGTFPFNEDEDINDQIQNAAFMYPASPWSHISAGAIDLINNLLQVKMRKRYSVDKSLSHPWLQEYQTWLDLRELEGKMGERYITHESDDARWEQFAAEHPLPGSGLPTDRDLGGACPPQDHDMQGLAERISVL

[18] = target: 5-hydroxytryptamine receptor 1E (Homo sapiens) (UniProt P28566); details: Compound concentration 10.0 uM
[19] = target: Calcium/calmodulin-dependent protein kinase kinase 2 (Homo sapiens) (UniProt Q96RR4); details: Compound concentration 1000.0 nM
[20] = tested on: Receptor-type tyrosine-protein kinase FLT3 (Homo sapiens), P36888 [D835V]; details: Compound concentration 1000.0 nM
[21] = target: 3-phosphoinositide-dependent protein kinase 1 (Homo sapiens) (UniProt O15530); details: Compound concentration 1000.0 nM
[22] = target: Myosin-IIIa (Homo sapiens) (UniProt Q8NEV4); details: Compound concentration 1000.0 nM
[23] = target: Wee1-like protein kinase (Homo sapiens) (UniProt P30291); details: Compound concentration 1000.0 nM
Sequence of Wee1-like protein kinase (Homo sapiens) (P30291 whole entry, looked up): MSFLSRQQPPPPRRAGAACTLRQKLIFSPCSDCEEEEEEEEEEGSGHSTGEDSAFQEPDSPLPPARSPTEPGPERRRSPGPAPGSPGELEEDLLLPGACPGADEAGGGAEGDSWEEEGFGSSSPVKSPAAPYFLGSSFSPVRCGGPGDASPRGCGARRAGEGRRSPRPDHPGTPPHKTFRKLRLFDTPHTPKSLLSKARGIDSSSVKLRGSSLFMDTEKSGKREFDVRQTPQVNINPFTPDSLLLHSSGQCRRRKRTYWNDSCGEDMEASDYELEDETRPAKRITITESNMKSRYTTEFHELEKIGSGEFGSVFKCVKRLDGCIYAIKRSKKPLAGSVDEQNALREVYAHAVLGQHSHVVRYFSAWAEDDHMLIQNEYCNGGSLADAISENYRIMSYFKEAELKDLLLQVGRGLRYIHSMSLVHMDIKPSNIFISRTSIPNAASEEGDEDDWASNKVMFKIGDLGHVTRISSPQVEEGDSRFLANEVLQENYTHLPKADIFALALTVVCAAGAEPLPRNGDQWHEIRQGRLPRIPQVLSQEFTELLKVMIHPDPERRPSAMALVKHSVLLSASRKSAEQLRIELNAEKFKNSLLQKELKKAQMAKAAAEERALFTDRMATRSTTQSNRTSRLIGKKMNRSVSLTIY

[24] = target: Cyclin-dependent kinase-like 5 (Homo sapiens) (UniProt O76039); details: Compound concentration 1000.0 nM
[25] = target: Serine/threonine-protein kinase 32A (Homo sapiens) (UniProt Q8WU08); details: Compound concentration 1000.0 nM
[26] = target: Serine/threonine-protein kinase 17B (Homo sapiens) (UniProt O94768); details: Compound concentration 1000.0 nM
Sequence of Serine/threonine-protein kinase 17B (Homo sapiens) (O94768 whole entry): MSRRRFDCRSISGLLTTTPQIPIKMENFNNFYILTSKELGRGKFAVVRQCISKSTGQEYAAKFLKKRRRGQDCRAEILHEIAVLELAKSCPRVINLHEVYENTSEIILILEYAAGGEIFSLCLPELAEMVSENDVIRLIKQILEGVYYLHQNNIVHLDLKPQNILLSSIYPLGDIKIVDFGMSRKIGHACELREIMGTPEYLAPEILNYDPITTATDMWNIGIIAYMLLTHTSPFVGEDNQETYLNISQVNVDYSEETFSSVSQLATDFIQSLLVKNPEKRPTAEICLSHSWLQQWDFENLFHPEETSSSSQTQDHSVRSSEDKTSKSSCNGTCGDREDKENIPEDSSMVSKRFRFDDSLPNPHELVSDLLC

[27] = target: Mitogen-activated protein kinase kinase kinase 5 (Homo sapiens) (UniProt Q99683); details: Compound concentration 1000.0 nM
[28] = target: Tyrosine-protein kinase Fes/Fps (Homo sapiens) (UniProt P07332); details: Compound concentration 1000.0 nM
[29] = target: Receptor tyrosine-protein kinase erbB-3 (Homo sapiens) (UniProt P21860); details: Compound concentration 1000.0 nM
Sequence of Receptor tyrosine-protein kinase erbB-3 (Homo sapiens) (P21860 whole entry): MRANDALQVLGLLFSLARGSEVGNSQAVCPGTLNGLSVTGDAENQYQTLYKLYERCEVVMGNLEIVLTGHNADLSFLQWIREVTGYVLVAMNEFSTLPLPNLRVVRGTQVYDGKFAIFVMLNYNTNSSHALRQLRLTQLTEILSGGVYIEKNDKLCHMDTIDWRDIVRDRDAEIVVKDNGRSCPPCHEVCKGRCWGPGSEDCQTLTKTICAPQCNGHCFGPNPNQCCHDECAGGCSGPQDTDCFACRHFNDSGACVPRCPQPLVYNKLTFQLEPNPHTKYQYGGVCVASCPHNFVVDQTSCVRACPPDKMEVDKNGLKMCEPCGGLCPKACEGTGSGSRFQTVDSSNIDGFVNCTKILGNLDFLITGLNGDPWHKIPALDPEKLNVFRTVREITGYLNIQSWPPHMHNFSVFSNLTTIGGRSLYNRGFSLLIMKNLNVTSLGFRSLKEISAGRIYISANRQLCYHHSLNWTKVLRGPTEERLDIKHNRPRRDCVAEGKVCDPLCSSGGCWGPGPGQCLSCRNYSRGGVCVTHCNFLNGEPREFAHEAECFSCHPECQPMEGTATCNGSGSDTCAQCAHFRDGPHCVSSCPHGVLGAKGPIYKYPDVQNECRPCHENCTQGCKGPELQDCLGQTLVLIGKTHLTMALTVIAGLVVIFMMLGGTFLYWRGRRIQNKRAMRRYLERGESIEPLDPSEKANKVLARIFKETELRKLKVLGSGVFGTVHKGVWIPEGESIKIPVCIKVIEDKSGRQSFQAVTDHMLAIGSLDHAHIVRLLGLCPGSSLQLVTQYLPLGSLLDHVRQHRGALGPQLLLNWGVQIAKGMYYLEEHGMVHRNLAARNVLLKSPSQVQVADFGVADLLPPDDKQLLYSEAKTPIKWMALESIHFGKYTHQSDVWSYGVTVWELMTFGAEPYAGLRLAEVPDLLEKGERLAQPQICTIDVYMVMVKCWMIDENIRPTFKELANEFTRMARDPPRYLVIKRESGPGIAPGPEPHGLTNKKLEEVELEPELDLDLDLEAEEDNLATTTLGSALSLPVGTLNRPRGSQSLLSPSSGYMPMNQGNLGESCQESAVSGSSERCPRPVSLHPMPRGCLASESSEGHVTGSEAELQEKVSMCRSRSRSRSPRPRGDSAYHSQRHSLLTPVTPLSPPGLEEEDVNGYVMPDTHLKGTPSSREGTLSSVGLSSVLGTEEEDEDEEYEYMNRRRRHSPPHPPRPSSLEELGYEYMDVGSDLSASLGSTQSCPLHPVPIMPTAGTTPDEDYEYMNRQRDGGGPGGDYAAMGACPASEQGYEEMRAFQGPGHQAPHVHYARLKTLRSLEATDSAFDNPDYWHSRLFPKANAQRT

[30] = target: Serine/threonine-protein kinase SIK3 (Homo sapiens) (UniProt Q9Y2K2); details: Compound concentration 1000.0 nM
[31] = target: 5'-AMP-activated protein kinase catalytic subunit alpha-1 (Homo sapiens) (UniProt Q13131); details: Compound concentration 1000.0 nM
[32] = tested on: Proto-oncogene tyrosine-protein kinase receptor Ret (Homo sapiens), P07949 [M918T]; details: Compound concentration 1000.0 nM
[33] = target: Mitogen-activated protein kinase 8 (Homo sapiens) (UniProt P45983); details: Compound concentration 1000.0 nM
[34] = target: Casein kinase II subunit alpha (Homo sapiens) (UniProt P68400); details: Compound concentration 1000.0 nM
[35] = target: Ribosomal protein S6 kinase alpha-1 (Homo sapiens) (UniProt Q15418); details: Compound concentration 1000.0 nM
[36] = target: NUAK family SNF1-like kinase 2 (Homo sapiens) (UniProt Q9H093); details: Compound concentration 1000.0 nM
[37] = target: Mu-type opioid receptor (Homo sapiens) (UniProt P35372); details: Compound concentration 10.0 uM
[38] = target: Cyclin-dependent kinase 17 (Homo sapiens) (UniProt Q00537); details: Compound concentration 1000.0 nM
[39] = target: Sigma intracellular receptor 2 (Homo sapiens) (UniProt Q5BJF2); details: Compound concentration 10.0 uM
[40] = target: Serine/threonine-protein kinase pim-1 (Homo sapiens) (UniProt P11309); details: Compound concentration 1000.0 nM
[41] = target: Insulin receptor (Homo sapiens) (UniProt P06213); details: Compound concentration 1000.0 nM
[42] = target: Serine/threonine-protein kinase Nek3 (Homo sapiens) (UniProt P51956); details: Compound concentration 1000.0 nM
[43] = target: Serine/threonine-protein kinase haspin (Homo sapiens) (UniProt Q8TF76); details: Compound concentration 1000.0 nM
[44] = target: Ribosomal protein S6 kinase beta-1 (Homo sapiens) (UniProt P23443); details: Compound concentration 1000.0 nM
[45] = tested on: Phosphatidylinositol 4,5-bisphosphate 3-kinase catalytic subunit alpha isoform (Homo sapiens), P42336 [E545K]; details: Compound concentration 1000.0 nM
[46] = target: NUAK family SNF1-like kinase 1 (Homo sapiens) (UniProt O60285); details: Compound concentration 1000.0 nM

Sequence of Muscarinic acetylcholine receptor M2 (Homo sapiens) (P08172 whole entry): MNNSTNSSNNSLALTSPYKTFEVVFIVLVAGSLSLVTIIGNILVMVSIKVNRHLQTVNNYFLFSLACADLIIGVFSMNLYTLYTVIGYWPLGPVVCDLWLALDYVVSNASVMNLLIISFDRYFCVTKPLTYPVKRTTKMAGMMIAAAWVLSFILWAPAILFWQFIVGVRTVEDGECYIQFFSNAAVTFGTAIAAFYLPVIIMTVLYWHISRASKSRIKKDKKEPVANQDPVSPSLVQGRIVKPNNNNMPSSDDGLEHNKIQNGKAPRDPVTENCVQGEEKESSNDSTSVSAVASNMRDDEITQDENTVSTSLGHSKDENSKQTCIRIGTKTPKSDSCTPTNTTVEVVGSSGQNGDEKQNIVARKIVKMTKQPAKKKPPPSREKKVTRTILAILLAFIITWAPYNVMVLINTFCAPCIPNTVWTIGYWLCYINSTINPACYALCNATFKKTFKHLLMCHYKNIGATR

C[C@@H](c1cccc(C#N)c1)n1cc(Cl)cc(C(N)=O)c1=N [(S)-9s]
residual activity [1]: 100% | inhibition [2]: 0.11% | residual activity [3]: 94% | residual activity [4]: 94% | residual activity [5]: 98% | residual activity [6]: 100% | residual activity [7]: 100% | residual activity [8]: 98% | residual activity [9]: 99% | inhibition [10]: 13.8% | inhibition [11]: -6.15% | residual activity [12]: 100% | residual activity [13]: 90% | residual activity [14]: 100% | residual activity [15]: 97% | residual activity [16]: 100% | residual activity [17]: 91% | inhibition [18]: -1.72% | residual activity [19]: 100% | residual activity [20]: 95% | residual activity [21]: 100% | residual activity [22]: 99% | residual activity [23]: 100% | residual activity [24]: 89% | residual activity [25]: 100% | residual activity [26]: 72% | residual activity [27]: 100% | residual activity [28]: 77% | residual activity [29]: 91% | residual activity [30]: 94% | residual activity [31]: 100% | residual activity [32]: 100% | residual activity [33]: 75% | residual activity [34]: 72% | residual activity [35]: 100% | residual activity [36]: 86% | inhibition [37]: -6.83% | residual activity [38]: 84% | inhibition [39]: 20.7% | residual activity [40]: 100% | residual activity [41]: 100% | residual activity [42]: 44% | residual activity [43]: 100% | residual activity [44]: 100% | residual activity [45]: 88% | residual activity [46]: 89%

C[C@H](c1cccc(C#N)c1)n1cc(Cl)cc(C(N)=O)c1=N [(R)-9s]
residual activity [1]: 100% | inhibition [2]: -3.2% | residual activity [3]: 77% | residual activity [4]: 100% | residual activity [5]: 94% | residual activity [6]: 100% | residual activity [7]: 100% | residual activity [8]: 97% | residual activity [9]: 100% | inhibition [10]: 18.6% | inhibition [11]: 1.16% | residual activity [12]: 100% | residual activity [13]: 96% | residual activity [14]: 91% | residual activity [15]: 89% | residual activity [16]: 97% | residual activity [17]: 58% | inhibition [18]: -3.17% | residual activity [19]: 100% | residual activity [20]: 89% | residual activity [21]: 100% | residual activity [22]: 100% | residual activity [23]: 100% | residual activity [24]: 73% | residual activity [25]: 100% | residual activity [26]: 73% | residual activity [27]: 85% | residual activity [28]: 53% | residual activity [29]: 92% | residual activity [30]: 100% | residual activity [31]: 92% | residual activity [32]: 91% | residual activity [33]: 72% | residual activity [34]: 67% | residual activity [35]: 100% | residual activity [36]: 91% | inhibition [37]: -5.45% | residual activity [38]: 91% | inhibition [39]: 53.6% | residual activity [40]: 100% | residual activity [41]: 97% | residual activity [42]: 66% | residual activity [43]: 91% | residual activity [44]: 100% | residual activity [45]: 82% | residual activity [46]: 57%
